# Data taken from the SangsterLogP compilation.
# Assays:
# [1] = method code SF-AS, from DOI: 10.1111/j.2042-7158.1991.tb06664.x, PMID: 1675277
Structure (SMILES),logP,logP [1]
N#Cc1ccc(S(N)(=O)=O)cc1,0.4,–
Nc1ccc(S(=O)(=O)c2ccc([N+](=O)[O-])cc2)cc1,2.03,–
N#Cc1ccc(S(=O)(=O)c2ccc(N)cc2)cc1,–,1.63
Nc1ccc(S(=O)(=O)c2cccc(N)c2)cc1,–,1.03
COc1cc(OC)c(S(=O)(=O)c2ccc(N)cc2)c(OC)c1,–,1.03
NC(=O)c1ccc(S(=O)(=O)c2ccc(N)cc2)cc1,–,0.9
NC(=O)c1cccc(S(N)(=O)=O)c1,-0.55,–
NS(=O)(=O)c1ccc(S(N)(=O)=O)cc1,-0.7,–
Nc1ccc(S(=O)(=O)c2ccc(F)cc2)cc1,–,2.01
Nc1ccc(S(=O)(=O)c2ccc(NO)cc2)cc1,–,0.88
Cc1ccc(S(=O)(=O)c2ccc(N)cc2)c(C)c1,2.69,–
Cc1ccc(S(N)(=O)=O)cc1,0.83,–
CCN(CC)C(=O)c1ccc(S(=O)(=O)c2ccc(N)cc2)cc1,–,1.44
Cc1cc(C)c(S(=O)(=O)c2ccc(N)cc2)c(C)c1,–,3.06
N#Cc1cccc(S(N)(=O)=O)c1,0.27,–
Nc1ccc(S(=O)(=O)c2ccccc2)cc1,1.84,–
Cc1ccc(S(=O)(=O)c2ccc(N)cc2)cc1,–,2.4
CC(=O)c1ccc(S(=O)(=O)c2ccc(N)cc2)cc1,–,1.67
COc1ccc(S(=O)(=O)c2ccc(N)cc2)c(OC)c1,1.65,–
Nc1ccc(S(=O)(=O)c2ccc(O)cc2)cc1,–,1.57
Nc1ccc(S(=O)(=O)c2ccc(Cl)cc2)cc1,–,2.57
Nc1ccc(S(=O)(=O)c2ccc(O)cc2O)cc1,–,1.29
CN(C)c1ccc(S(=O)(=O)c2ccc(N)cc2)cc1,1.93,–

# The remaining lines, values ahead:
logP,logP [1],Structure (SMILES)
0.33,–,NS(=O)(=O)c1ccccc1
3.15,–,Nc1ccc(S(=O)(=O)c2ccc(Br)cc2)cc1
0.31,–,CC(=O)c1ccc(S(N)(=O)=O)cc1
–,3.12,Nc1ccc(S(=O)(=O)c2ccc(Cl)cc2Cl)cc1
1.84,–,Nc1ccc(S(=O)(=O)c2ccc([N+](=O)[O-])cc2[N+](=O)[O-])cc1
–,1.98,CCNc1ccc(S(=O)(=O)c2ccc(N)cc2)cc1
-0.66,–,NC(=O)c1ccc(S(N)(=O)=O)cc1
–,1.53,Nc1ccc(S(=O)(=O)c2c(O)cc(O)cc2O)cc1
–,0.38,Nc1ccc(S(=O)(=O)c2ccc(N)cc2N)cc1
0.65,–,COc1cccc(S(N)(=O)=O)c1
2.13,–,COC(=O)c1ccc(S(=O)(=O)c2ccc(N)cc2)cc1
0.6,–,NS(=O)(=O)c1cccc([N+](=O)[O-])c1
–,1.56,Nc1ccc(S(=O)(=O)c2ccccc2N)cc1
–,3,CCN(CC)c1ccc(S(=O)(=O)c2ccc(N)cc2)cc1
–,1.96,COc1ccc(S(=O)(=O)c2ccc(N)cc2)cc1
